Data reported in patent publication US7342026B2, “Substituted quinolines for the treatment of protozoa and retrovirus co-infections” (priority 2001, dated 2008).
Read-outs that look alike come from different tables or passages of the source.

Key:
[1] = test system: circulating forms of Trypanosoma brucei (S427 strain); assay: microbe, parasite or virus in culture; type: cell-based; details: read-out: T. brucei IC50
Procedure: d) Tests on the Circulating Forms of Trypanosoma brucei
The circulating forms of Trypanosoma brucei are cultured in MEM medium (minimum essential medium; GIBCO-BRL, No. 072-1100) to which Earle's salts have been added and supplemented with 1 mg/ml of glucose, 2.2 mg/ml of NaHCO3, 10 mM of Hepes, 2 mM of sodium pyruvate, 0.2 mM of 2-mercaptoethanol, 0.1 mM of hypoxanthine and 15% of inactivated horse serum.
The cultures are maintained at 37° C. in 24-well plates in a humid atmosphere (5% CO2-95% air) and the passages are carried out every 2 or 3 days at a density of 10^3 to 10^5 trypomastigotes per ml. The activity of the substituted quinolines is tested in triplicate in 96-well plates in which 10^3 parasites originating from an exponential growth phase are distributed per well, in the presence of the various solutions of substituted quinolines in a final volume of 200 μl. After culturing for 48 hours, the trypanocidal activity is assessed by counting, with a Neubauer cell, the number of live parasites per well.

[2] = Cytotoxicity with respect to host CEM4fx cells (MTT bioconversion assay); type: cell-based; details: human, CEM4fx cells (host cells)
Procedure: (§1) Moreover, the cytotoxicity of the quinolines with respect to the host cells is measured by an MTT [3-(4,5-dimethylthiazol-2-yl)-2,5-diphenyltetrazolium bromide]bioconversion assay. All the assays are carried out in triplicate.

[3] = test system: amastigotes of Leishmania amazonensis; assay: Amastigotes of Leishmania amazonensis in infected macrophages (leishmanicidal activity); type: cell-based; details: 100% inhibitory concentration, intracellular amastigotes in BALB/c macrophages, 30 hours after addition
Procedure: The strain of Leishmania amazonensis is maintained by successive passages in “nude” mice (nu/nu). The amastigotes are isolated from the lesions developed on the footpads, and purified according to the method described by Antoine et al. (Parasitology, 1989, 99: 1).
The leishmanicidal activity of the quinolines is determined 30 hours after addition of the solutions of substituted quinolines. It is based on a more or less large, or even complete, decrease, firstly, in the size of the parasitophorous vacuoles and, secondly, in the number of live intracellular amastigotes.

[4] = test system: Leishmania infantum (MHOM/FR/91/LEM2259V); assay: Balb/c mice infected with visceral leishmaniasis (Leishmania infantum); type: in vivo; details: 10 days, quinolines oral 25 mg/kg/day, Glucantime subcutaneous 100 mg/kg/day
Procedure: b) Tests Carried on Laboratory Animals Infected with Visceral Leishmaniasis (Leishmania infantum): 1/Laboratory Animals and Parasites
The Balb/c mice were infected with Leishmania infantum parasites at the promastigote stage (reference: MHOM/FR/91/LEM2259V), a strain isolated from a patient carrying AIDS. This strain is maintained in Schneider's drosophila culture medium (Gibco, USA) supplemented with 20% of fetal calf serum. The infectious promastigotes are cultured for 7 days and then counted. Each mouse is then infected intravenously with 0.2 ml of culture medium containing 10^7 promastigotes.
Counting of amastigotes forms in the liver and spleen.
After the treatments have been stopped and the animals sacrificed, the viscera, liver and spleen are weighed and collected in a Petri dish. Each organ is mounted several times on a degreased glass slide which, fixed and stained by the May-Grünwald-Giemsa technique, makes it possible to determine the number of amastigote forms per 500 nucleated cells.
The results are expressed in Table VI.

macrophages = assay: Cytotoxicity on macrophages; type: cell-based, BALB/c mice
Procedure: The macrophages, which will be used as host cells for the leishmania, are obtained after multiplication and differentiation of medullary precursors from BALB/c mice. This culture is prepared in the presence of supernatant from a conditioned line of fibroblasts L-929, and source of “Macrophage Colony Stimulating Factor”. After culturing for 5 days on a hydrophobic support, the adherent macrophages are recovered and then distributed in flat-bottomed 96-well plates for cell culture, in a proportion of 4×10^4 macrophages per well. The macrophages are then infected with purified amastigotes (4 parasites per macrophage) and incubated at 34° C. for 24 hours to allow development of parasitophorous vacuoles and multiplication of parasites. Under these conditions, more than 95% of the macrophages are infected.
The solutions of the substituted quinolines to be tested are prepared in DMSO before being added, at various concentrations, to the infected macrophage cultures.
The results obtained with the substituted quinolines, assigned Nos. 1, 2, 4, 6 to 11, 13 to 20, 23 to 34, 37 and 38 in Table I, are given in Table II below as regards their activity on the amastigotes of Leishmania amazonensis, of Leishmania donovani and of Leishmania infantum, and also their cytotoxicity with respect to the macrophages.

[5] = test system: HIV-1 (molecular clone pLN4-3); assay: microbe, parasite or virus in culture; type: cell-based, human immunodeficiency virus (HIV-1); details: read-out: Antiretroviral activity IC50
Source text: e) Tests on the Replication of HIV-1
CEM4fx cells are infected de novo with the molecular clone pLN4-3 of HIV-1, and simultaneously treated with the substituted quinolines to be tested, dissolved beforehand in DMSO. The virus multiplies for three days, and then the presence of infectious virions is detected in the culture supernatant (RPMI medium) by reinfecting “P4” cells which have a reporter gene which is expressed when they are infected with the virus. The viral load is quantified after culturing for 72 hours, by two methods: estimation of the viral load by infection of HeLa-βgal CD4^+ cells and determination of the amount of viral protein p24 by an ELISA assay.

[6] = test system: amastigotes of Trypanosoma cruzi (Tulahuen strain); assay: Amastigotes of Trypanosoma cruzi in peritoneal macrophages; type: cell-based; details: read-out: T. cruzi (amastigotes) IC50
Procedure: c) Tests on Amastigotes of Trypanosoma cruzi
Peritoneal macrophages from Balb/c mice are collected, washed in Dulbecco PBS and then distributed in 96-well plates in a proportion of 3×10^4 cells per 100 μl and per well, in RPMI-1640 medium supplemented with 10% FCS and antibiotics.
After 24 hours at 37° C., 10^5 trypomastigotes are added with serial 2-fold dilutions of the various substituted quinolines. The cultures are then incubated at 37° C. for 4 days in a humid atmosphere (5% CO2-95% air). After fixing, and then staining with Giemsa, the antiparasitic activity is assessed by counting the extracellular trypomastigotes and the intracellular amastigotes.

CEM4fx cells = assay: Cytotoxicity with respect to host CEM4fx cells (MTT bioconversion assay); type: cell-based
Procedure: as §1

[7] = test system: amastigotes of Leishmania donovani (MHOM/ET/67/L82); assay: microbe, parasite or virus in culture; type: cell-based; details: amastigotes in Balb/c peritoneal macrophages, 48 hours
Source text: (§2) b) Tests on Amastigotes of Leishmania donovani and Leishmania infantum
(§3) The Leishmania donovani and Leishmania infantum strains are maintained by successive passages in golden hamsters. The amastigotes are isolated from the spleens of the infected hamsters and brought into contact with the purified macrophages.
(§4) Twenty-four hours after intraperitoneal injection of Balb/c mice with a 2% starch solution, the peritoneal macrophages of these mice are collected, washed in Dulbecco PBS and then distributed in Lab-tek® culture chambers, in a proportion of 4×10^4 cells per 100 μl per well in RPMI-1640 medium supplemented with 10% of FCS and antibiotics. After 24 hours at 37° C. in a humid atmosphere (5% CO2), the macrophages are brought into contact with purified amastigotes (3 parasites per macrophage) in a final volume of 200 μl for 4 hours. The medium is then removed in order to eliminate the extracellular parasites, and replaced with 100 μl of fresh medium.
(§5) Twenty-four hours after the beginning of infection, the solutions of substituted quinolines prepared as described in paragraph a) above are added and the leishmanicidal activity is determined after 48 hours by counting the number of parasites still alive in the fixed and Giemsa-stained cells.

[8] = test system: amastigotes of Leishmania infantum (IPZ229/1/89); assay: microbe, parasite or virus in culture; type: cell-based; details: amastigotes in Balb/c peritoneal macrophages, 48 hours
Source text: as §2, §3, §4, §5

[9] = HIV-1 replication in CEM4fx cells, 72 hours
[10] = Balb/c peritoneal macrophages, 4 days

SMILES | IC50 ([1]; Trypanosoma brucei, 48 h) [µM] | IC50 [2] [µM] | L. amazonensis IC100 [3] [µg/mL] | Number of parasites in the liver per gram ([4]; n=8) | Number of parasites in the spleen per gram ([4]; n=8) | % reduction in the number of parasites in the liver ([4]; versus without treatment) [%] | % reduction in the number of parasites in the spleen ([4]; versus without treatment) [%] | Cytotoxicity on macrophages (macrophages; BALB/c, mouse) [µg/mL] | IC50 ([5]; Human immunodeficiency virus 1, 72 h) [µM] | IC50 ([6]; Trypanosoma cruzi, TULAHUEN, Peritoneal macrophage, in Mus musculus, 96 h) [µM] | IC50 ([1]; circulating forms, culturing for 48 hours) [µM] | IC50 (CEM4fx cells) [µM] | Cytotoxicity on macrophages (macrophages; macrophages from BALB/c mice) [µg/mL] | IC50 [5, 9] [µM] | IC50 [6, 10] [µM] | L. amazonensis IC100 ([3]; listed as 26) [µg/mL] | L. donovani IC50 [7] [µg/mL] | L. infantum (IPZ229/1/89) IC50 [8] [µg/mL]
O=CC=Cc1ccc2ccccc2n1 [Quinoline 9, 3-(2-quinolyl)propenal] | 19 | 2 | 0.781 | 3.8 × 10^6 a, e per gram | 2.2 × 10^6 b per gram | −91.6 | −47.6 | 1.56 | 0.6 | 5 |  |  |  |  |  |  |  | 
CCCCCc1ccc2ccccc2n1 [Quinoline 20] |  |  | >50 |  |  |  |  |  |  |  | 13 | 9 | >100 | 2 | 19 |  |  | 
C[Si](C)(C)C#Cc1ccc2ccccc2n1 [Quinoline 26] |  |  |  |  |  |  |  |  |  |  |  | 3 | 1.56 | 0.9 | 8 | 12.5 | 1.7 | 10.9
